In patent US5045302A, “Ligands and cationic complexes thereof with technetium-99m” (priority 1988, dated 1991):
Where two headings read alike, the source gives them in different places.

What was measured:
[1] = rat, in vivo
[2] = Plasma binding study (PD10 column), human plasma; format: in vitro ADME; conditions: for percent recovery of Tc99m activity: human, plasma; for binding to / interaction with human plasma: in words
Experimental: (§1) 1 ml sample of guinea pig or human plasma or saline (control) were added to 2 ml Eppendorf tubes. To these were then added 100 ul aliquots of the ^99m Tc preparation being studied. Mixing was performed by inverting the tubes several times. A 50 ul sample was then taken for counting and the remainder of the sample (1050 ul) was quantitatively transferred to the top of the PD10 column. The sample was allowed to enter the column matrix and then washed in with 1.5 mls saline. Initially a 2.5 ml aliquot was collected for counting, (dead volume) subsequently 0.5 ml aliquots were collected until a total volume of 16 mls had been used to elute the column. […] Collected fractions were counted in a γ well counter and a graph plotted of percentage recovery was calculated from initial preloading sample and cumulative counts.

[3] = guinea pig, in vivo
[4] = Rat biodistribution of Tc-99m complexes
[5] = Heart uptake and urinary output, statement in words; conditions: species not stated
[6] = Hydrophilicity, statement in words; format: physicochemical; conditions: compared with complex TcL2O2+ (L=P53), as indicated by urinary output
[7] = Guinea pig biodistribution of Tc-99m complexes; conditions: 60 min p.i.
[8] = in vivo
[9] = saline
Experimental: as §1

[10] = guinea pig, serum
Experimental: as §1

[11] = Protein binding, statement in words; format: in vitro ADME

For `CCOCC[P+]1(CCOCC)CC[P+](CCOCC)(CCOCC)[Tc-3]12([Cl])([Cl])[P+](CCOCC)(CCOCC)CC[P+]2(CCOCC)CCOCC`, the “blood and liver clearance” value [1] was “good”, the heart uptake [1] was “good heart uptake” and the wash-out from heart [1] was “washes out of the respective hearts”. For the same compound, the Blood ([1]; 2 min) was 5.24 % Injected dose/organ, the Heart ([1]; 2 min) was 1.51 % Injected dose/organ and the “Heart/Blood Counts/Gram Ratio” value ([1]; 2 min) was 3.90. The “Heart/Liver Counts/Gram Ratio” value ([1]; 2 min) was 0.64, the “Heart/Muscle Counts/Gram Ratio” value ([1]; 2 min) was 4.68 and the “Kidney + Urine” value ([1]; 2 min) was 4.48 % Injected dose/organ. For the same compound, the Liver ([1]; 2 min) was 28.87 % Injected dose/organ, the “Liver + GI” value ([1]; 2 min) was 41.13 % Injected dose/organ and the Lung ([1]; 2 min) was 1.45 % Injected dose/organ. For the same compound, the Muscle ([1]; 2 min) was 34.92 % Injected dose/organ, the Blood ([1]; 60 min) was 0.71 % Injected dose/organ and the Heart ([1]; 60 min) was 0.16 % Injected dose/organ. For the same compound, the “Heart/Blood Counts/Gram Ratio” value ([1]; 60 min) was 3.09, the “Heart/Liver Counts/Gram Ratio” value ([1]; 60 min) was 0.46 and the “Heart/Muscle Counts/Gram Ratio” value ([1]; 60 min) was 1.41. The “Kidney + Urine” value ([1]; 60 min) was 4.95 % Injected dose/organ, the Liver ([1]; 60 min) was 4.78 % Injected dose/organ and the “Liver + GI” value ([1]; 60 min) was 61.34 % Injected dose/organ. The Lung ([1]; 60 min) was 0.47 % Injected dose/organ, the Muscle ([1]; 60 min) was 11.68 % Injected dose/organ and the “percent recovery of Tc99m activity” value [2] was 93.8%. For the same compound, the “binding to / interaction with human plasma” value [2] was “possible slight interaction”, the “blood and liver clearance” value [3] was “good” and the heart uptake [3] was “good heart uptake”. For the same compound, the wash-out from heart [3] was “washes out of the respective hearts”, the Blood ([3]; 2 min) was 3.50 % Injected dose/organ and the Heart ([3]; 2 min) was 1.89 % Injected dose/organ. For the same compound, the “Heart/Blood Counts/Gram Ratio” value ([3]; 2 min) was 12.72, the “Heart/Liver Counts/Gram Ratio” value ([3]; 2 min) was 2.13 and the “Heart/Muscle Counts/Gram Ratio” value ([3]; 2 min) was 4.48. For the same compound, the “Kidney + Urine” value ([3]; 2 min) was 6.98 % Injected dose/organ, the Liver ([3]; 2 min) was 13.74 % Injected dose/organ and the “Liver + GI” value ([3]; 2 min) was 18.72 % Injected dose/organ. It also gave a Lung ([3]; 2 min) of 3.11 % Injected dose/organ, a Muscle ([3]; 2 min) of 61.65 % Injected dose/organ and a Blood ([3]; 60 min) of 0.58 % Injected dose/organ. The Heart ([3]; 60 min) was 0.13 % Injected dose/organ, the “Heart/Blood Counts/Gram Ratio” value ([3]; 60 min) was 5.35 and the “Heart/Liver Counts/Gram Ratio” value ([3]; 60 min) was 0.72. The “Heart/Muscle Counts/Gram Ratio” value ([3]; 60 min) was 1.13, the “Kidney + Urine” value ([3]; 60 min) was 3.20 % Injected dose/organ and the Liver ([3]; 60 min) was 3.16 % Injected dose/organ. For the same compound, the “Liver + GI” value ([3]; 60 min) was 62.38 % Injected dose/organ, the Lung ([3]; 60 min) was 0.30 % Injected dose/organ and the Muscle ([3]; 60 min) was 15.16 % Injected dose/organ.
With `COCCCP(CCCOC)CCP(CCCOC)CCCOC` [Compound 3] the Blood ([4]; 2 min p.i.) was 18.8 % Injected dose/organ, the Heart ([4]; 2 min p.i.) was 0.44 % Injected dose/organ and the “Heart/Blood Counts/Gram Ratio” value ([4]; 2 min p.i.) was 0.35. For the same compound, the “Heart/Liver Counts/Gram Ratio” value ([4]; 2 min p.i.) was 1.71, the Liver ([4]; 2 min p.i.) was 3.62 % Injected dose/organ and the Blood ([4]; 60 min p.i.) was 0.77 % Injected dose/organ. The Heart ([4]; 60 min p.i.) was 0.09 % Injected dose/organ, the “Heart/Blood Counts/Gram Ratio” value ([4]; 60 min p.i.) was 1.82 and the “Heart/Liver Counts/Gram Ratio” value ([4]; 60 min p.i.) was 0.88. For the same compound, the Liver ([4]; 60 min p.i.) was 1.35 % Injected dose/organ, the heart uptake [5] was “low heart uptake” and the urinary output [5] was “high urinary output”. The hydrophilicity [6] was “substantially higher hydrophilicity”.
In the case of `CCOCC[P+]1(CCOCC)CC[P+](CCOCC)(CCOCC)[Tc-3]12(=[O])(=[O])[P+](CCOCC)(CCOCC)CC[P+]2(CCOCC)CCOCC` [[TcO2 (P53)2]^+], the “Heart/Lung Counts/Gram Ratio” value [7] is reported as 2.0, the “Heart/Blood Counts/Gram Ratio” value ([4]; 2 min p.i.) is reported as 10.5 and the “Heart/Liver Counts/Gram Ratio” value ([4]; 2 min p.i.) is reported as 1.52. The “Heart/Lung Counts/Gram Ratio” value ([4]; 2 min p.i.) was 2.0, the Liver ([4]; 60 min p.i.) was 1.62 % Injected dose/organ and the Blood ([1]; 2 min) was 2.25 % Injected dose/organ. The Brian ([1]; 2 min) was 0.03 % Injected dose/organ, the Heart ([1]; 2 min) was 1.66 % Injected dose/organ and the “Heart/Muscle Counts/Gram Ratio” value ([1]; 2 min) was 5.94. For the same compound, the “Kidney + Urine” value ([1]; 2 min) was 13.2 % Injected dose/organ, the Liver ([1]; 2 min) was 14.1 % Injected dose/organ and the “Liver + GI” value ([1]; 2 min) was 37.8 % Injected dose/organ. For the same compound, the Lung ([1]; 2 min) was 1.44 % Injected dose/organ, the Muscle ([1]; 2 min) was 31.6 % Injected dose/organ and the Blood ([1]; 60 min) was 0.28 % Injected dose/organ. For the same compound, the Brian ([1]; 60 min) was 0.02 % Injected dose/organ, the Heart ([1]; 60 min) was 1.68 % Injected dose/organ and the “Heart/Blood Counts/Gram Ratio” value ([1]; 60 min) was 86.4. The “Heart/Liver Counts/Gram Ratio” value ([1]; 60 min) was 14.4, the “Heart/Lung Counts/Gram Ratio” value ([1]; 60 min) was 4.3 and the “Heart/Muscle Counts/Gram Ratio” value ([1]; 60 min) was 5.74. The “Kidney + Urine” value ([1]; 60 min) was 9.29 % Injected dose/organ, the “Liver + GI” value ([1]; 60 min) was 42.5 % Injected dose/organ and the Lung ([1]; 60 min) was 0.65 % Injected dose/organ. For the same compound, the Muscle ([1]; 60 min) was 31.6 % Injected dose/organ, the heart uptake [8] was “good heart uptake” and the “percent recovery of Tc99m activity” value [9] was 90.82%. The “percent recovery of Tc99m activity” value [10] was 90.34%, the “percent recovery of Tc99m activity” value [2] was 65.23% and the “binding to / interaction with human plasma” value [2] was “no significant binding”. For the same compound, the Blood ([3]; 2 min) was 3.11 % Injected dose/organ, the Heart ([3]; 2 min) was 1.33 % Injected dose/organ and the “Heart/Blood Counts/Gram Ratio” value ([3]; 2 min) was 10.9. For the same compound, the “Heart/Liver Counts/Gram Ratio” value ([3]; 2 min) was 1.90, the “Heart/Lung Counts/Gram Ratio” value ([3]; 2 min) was 1.2 and the “Heart/Muscle Counts/Gram Ratio” value ([3]; 2 min) was 6.12. For the same compound, the “Kidney + Urine” value ([3]; 2 min) was 16.7 % Injected dose/organ, the Liver ([3]; 2 min) was 11.6 % Injected dose/organ and the “Liver + GI” value ([3]; 2 min) was 38.7 % Injected dose/organ. For the same compound, the Lung ([3]; 2 min) was 1.14 % Injected dose/organ, the Muscle ([3]; 2 min) was 30.0 % Injected dose/organ and the Blood ([3]; 60 min) was 0.41 % Injected dose/organ. For the same compound, the Heart ([3]; 60 min) was 0.99 % Injected dose/organ, the “Heart/Blood Counts/Gram Ratio” value ([3]; 60 min) was 61.9 and the “Heart/Liver Counts/Gram Ratio” value ([3]; 60 min) was 7.51. For the same compound, the “Heart/Muscle Counts/Gram Ratio” value ([3]; 60 min) was 4.10, the “Kidney + Urine” value ([3]; 60 min) was 16.1 % Injected dose/organ and the Liver ([3]; 60 min) was 2.13 % Injected dose/organ. The “Liver + GI” value ([3]; 60 min) was 44.6 % Injected dose/organ, the Lung ([3]; 60 min) was 0.47 % Injected dose/organ and the Muscle ([3]; 60 min) was 43.4 % Injected dose/organ. For the same compound, the protein binding [11] was “low protein binding”.
